Results as given in patent US20070249670A1, “Glycogen Phosphorylase Inhibitor Compounds and Pharmaceutical Compositions Thereof” (SMITHKLINE BEECHAM CORPORATION, priority 2004, published 2007).
Where a name gives a salt, the structure may show the parent alone.

Each molecule was assayed against T1, human liver glycogen phosphorylase a (HLGPa) (Homo sapiens, UniProt P06737) (assay: Human liver glycogen phosphorylase a enzymatic activity assay (coupled, fluorescent resorufin readout, with and without 10 mM glucose)). Details: human liver glycogen phosphorylase a; table does not say whether with or without 10 mM glucose.
T1 construct: creating a full-length cDNA fused at the 5′ end to codons for methionine-glycine-alanine-histidine; 6xHis tag (leader Met-Gly-Ala-His6-Gly-Gly) (N); made in house; host or cells: E. coli (bacterial expression plasmid pTXK1007LTev)
T1 sequence (P06737 2-847 limits assumed): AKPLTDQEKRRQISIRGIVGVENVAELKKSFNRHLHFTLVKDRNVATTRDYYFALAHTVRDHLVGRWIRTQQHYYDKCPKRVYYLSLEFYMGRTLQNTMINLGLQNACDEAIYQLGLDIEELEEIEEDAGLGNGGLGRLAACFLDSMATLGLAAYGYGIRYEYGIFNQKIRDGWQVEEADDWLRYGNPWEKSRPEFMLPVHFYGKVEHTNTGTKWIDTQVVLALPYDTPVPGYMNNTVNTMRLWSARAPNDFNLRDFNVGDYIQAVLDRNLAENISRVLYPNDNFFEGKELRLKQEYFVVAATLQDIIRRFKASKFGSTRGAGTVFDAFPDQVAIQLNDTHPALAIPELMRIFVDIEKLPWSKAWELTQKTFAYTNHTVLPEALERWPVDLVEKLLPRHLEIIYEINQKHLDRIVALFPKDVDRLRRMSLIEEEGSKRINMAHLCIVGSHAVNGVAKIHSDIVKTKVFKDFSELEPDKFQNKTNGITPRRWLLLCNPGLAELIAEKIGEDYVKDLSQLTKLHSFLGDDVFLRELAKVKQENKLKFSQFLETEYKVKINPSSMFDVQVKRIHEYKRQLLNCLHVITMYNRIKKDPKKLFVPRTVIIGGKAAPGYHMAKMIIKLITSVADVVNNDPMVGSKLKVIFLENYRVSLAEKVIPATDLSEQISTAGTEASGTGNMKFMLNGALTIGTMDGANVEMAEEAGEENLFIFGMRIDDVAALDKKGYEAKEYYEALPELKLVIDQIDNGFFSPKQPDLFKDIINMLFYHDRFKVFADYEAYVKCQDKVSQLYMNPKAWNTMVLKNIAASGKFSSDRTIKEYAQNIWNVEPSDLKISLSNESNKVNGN
Assay type: biochemical

SMILES	IC50 [nM]
O=C(Nc1cc2ccccc2cc1C(=O)NC1(C(=O)O)CCN(Cc2ccccc2)CC1)Nc1c(Cl)cccc1Cl [Example 286, 4-({[3-({[(2,6-Dichlorophenyl)amino]carbonyl}amino)-2-naphthalenyl]carbonyl}amino)-1-(phenylmethyl)-4-piperidinecarboxylic acid]	1380
Cc1cc(C)c(NC(=O)Nc2cc3ccccc3cc2C(=O)NC2(C(=O)O)CCN(C(=O)OC(C)(C)C)CC2)c(C)c1 [Example 287, 1-{[(1,1-Dimethylethyl)oxy]carbonyl}-4-({[3-({[(2,4,6-trimethylphenyl)amino]carbonyl}amino)-2-naphthalenyl]carbonyl}amino)-4-piperidinecarboxylic acid]	430
Cc1cc(C)c(NC(=O)Nc2cc3ccccc3cc2C(=O)NC2(C(=O)O)CCNCC2)c(C)c1 [Example 288, 4-({[3-({[(2,4,6-trimethylphenyl)amino]carbonyl}amino)-2-naphthalenyl]carbonyl}amino)-4-piperidinecarboxylic acid trifluoroacetate]	6170
CCCCN1CCC(NC(=O)c2cc3ccccc3cc2NC(=O)Nc2c(C)cc(C)cc2C)(C(=O)O)CC1 [Example 289, 1-Butyl-4-({[3-({[(2,4,6-trimethylphenyl)amino]carbonyl}amino)-2-naphthalenyl]carbonyl}amino)-4-piperidinecarboxylic acid]	4390
CCCC(=O)N1CCC(NC(=O)c2cc3ccccc3cc2NC(=O)Nc2c(C)cc(C)cc2C)(C(=O)O)CC1 [Example 290, 1-Butanoyl-4-({[3-({[(2,4,6-trimethylphenyl)amino]carbonyl}amino)-2-naphthalenyl]carbonyl}amino)-4-piperidinecarboxylic acid]	1240
O=C1CCC(NC(=O)c2cc3ccccc3cc2NC(=O)Nc2c(Cl)cccc2Cl)(C(=O)O)CC1 [Example 292, 1-({[3-({[(2,6-dichlorophenyl)amino]carbonyl}amino)-2-naphthalenyl]carbonyl}amino)-4-oxocyclohexanecarboxylic acid]	6590
Cc1cc(C)c(NC(=O)Nc2cc3ccccc3cc2C(=O)NC2(C(=O)O)CCC(NCc3ccccc3)CC2)c(C)c1 (stereo not drawn) [Example 294, 4-[(phenylmethyl)amino]-1-({[3-({[(2,4,6-trimethylphenyl)amino]carbonyl}amino)-2-naphthalenyl]carbonyl}amino)cyclohexanecarboxylic acid]	2530
Cc1cc(C)c(NC(=O)Nc2cc3ccccc3cc2C(=O)NC2(C(=O)O)CCC(NCc3ccccc3)CC2)c(C)c1 (stereo not drawn) [Example 295, 4-[(phenylmethyl)amino]-1-({[3-({[(2,4,6-trimethylphenyl)amino]carbonyl}amino)-2-naphthalenyl]carbonyl}amino)cyclohexanecarboxylic acid]	5560
Cc1cc(C)c(NC(=O)Nc2cc3ccccc3cc2C(=O)NC2(C(=O)O)CCC(=NO)CC2)c(C)c1 (stereo not drawn) [Example 296, 4-(hydroxyimino)-1-({[3-({[(2,4,6-trimethylphenyl)amino]carbonyl}amino)-2-naphthalenyl]carbonyl}amino)cyclohexanecarboxylic acid]	540
Cc1cc(C)c(NC(=O)Nc2nc3ccccc3cc2C(=O)N[C@H](C(=O)O)C2CCCCC2)c(C)c1 [Example 297, (2S)-cyclohexyl({[2-({[(2,4,6-trimethylphenyl)amino]carbonyl}amino)-3-quinolinyl]carbonyl}amino)ethanoic acid]	15600
O=C(Nc1cc2ccccc2nc1C(=O)N[C@H](C(=O)O)C1CCCCC1)Nc1c(Cl)cccc1Cl [Example 298, (2S)-Cyclohexyl({[3-({[(2,6-dichlorophenyl)amino]carbonyl}amino)-2-quinolinyl]carbonyl}amino)ethanoic acid]	150
O=C(Nc1cc2ccccc2nc1C(=O)N[C@H](C(=O)O)C1CCCCC1)Nc1c(Cl)cc(Cl)cc1Cl [Example 299, (2S)-Cyclohexyl({[3-({[(2,4,6-trichlorophenyl)amino]carbonyl}amino)-2-quinolinyl]carbonyl}amino)ethanoic acid]	480
Cc1cc(C)c(NC(=O)Nc2cc3ccccc3nc2C(=O)N[C@H](C(=O)O)C2CCCCC2)c(C)c1 [Example 300, (2S)-Cyclohexyl({[3-({[(2,4,6-trimethylphenyl)amino]carbonyl}amino)-2-quinolinyl]carbonyl}amino)ethanoic acid]	27
O=C(Nc1cc2ccccc2cc1C(=O)NC1(C(=O)O)CCCCCC1)Nc1c(Cl)cc(Cl)cc1Cl [Example 301, 1-({[3-({[(2,4,6-Trichlorophenyl)amino]carbonyl}amino)-2-naphthalenyl]carbonyl}amino)cycloheptanecarboxylic acid]	350
O=C(Nc1cc2ccccc2cc1C(=O)NC1(C(=O)O)CCCCCCC1)Nc1c(Cl)cc(Cl)cc1Cl [Example 303, 1-({[3-({[(2,4,6-trichlorophenyl)amino]carbonyl}amino)-2-naphthalenyl]carbonyl}amino)cyclooctanecarboxylic acid]	57
Cc1cc(C)c(NC(=O)Nc2cc3ccccc3nc2C(=O)NC2(C(=O)O)CCCCCC2)c(C)c1 [Example 306, 1-({[3-({[(2,4,6-trimethylphenyl)amino]carbonyl}amino)-2-quinolinyl]carbonyl}amino)cycloheptanecarboxylic acid]	11
Cc1cc(C)c(NC(=O)Nc2cc3ccccc3nc2C(=O)NC2(C(=O)O)CCCCCCC2)c(C)c1 [Example 307, 1-({[3-({[(2,4,6-trimethylphenyl)amino]carbonyl}amino)-2-quinolinyl]carbonyl}amino)cyclooctanecarboxylic acid]	2
Cc1cc(Br)cc(C)c1NC(=O)Nc1cc2ccccc2cc1C(=O)NC1(C(=O)O)CCCCCC1 [Example 308, 1-({[3-({[(4-bromo-2,6-dimethylphenyl)amino]carbonyl}amino)-2-naphthalenyl]carbonyl}amino)cycloheptanecarboxylic acid]	250
CCCc1cc(C)c(NC(=O)Nc2cc3ccccc3cc2C(=O)NC2(C(=O)O)CCCCCC2)c(C)c1 [Example 309, 1-({[3-({[(2,6-dimethyl-4-propylphenyl)amino]carbonyl}amino)-2-naphthalenyl]carbonyl}amino)cycloheptanecarboxylic acid]	11
Cc1cc(C)c(NC(=O)Nc2cc3ccccc3nc2C(=O)N[C@](C)(C(=O)O)C2CCCCC2)c(C)c1 [Example 312, 2-Cyclohexyl-N-{[3-({[(2,4,6-trimethylphenyl)amino]carbonyl}amino)-2-quinolinyl]carbonyl}-D-alanine]	230
CCCC[C@H](NC(=O)c1nc2ccccc2cc1NC(=O)Nc1c(C)cc(C)cc1C)C(=O)O [Example 313, N-{[3-({[(2,4,6-trimethylphenyl)amino]carbonyl}amino)-2-quinolinyl]carbonyl}-L-norleucine]	160
CCCC[C@H](NC(=O)c1nc2ccccc2cc1NC(=O)Nc1c(Cl)cccc1Cl)C(=O)O [Example 314, N-{[3-({[(2,6-dichlorophenyl)amino]carbonyl}amino)-2-quinolinyl]carbonyl}-L-norleucine]	1800
CCCC(CCC)(NC(=O)c1cc2ccccc2cc1NC(=O)Nc1c(Cl)cccc1Cl)C(=O)O [Example 316, N-{[3-({[(2,6-dichlorophenyl)amino]carbonyl}amino)-2-naphthalenyl]carbonyl}-2-propylnorvaline]	360
Cc1cc(C)c(NC(=O)Nc2cc(Cl)cnc2C(=O)N[C@H](C(=O)O)C2CCCCC2)c(C)c1 [Example 317, (2S)-({[5-chloro-3-({[(2,4,6-trimethylphenyl)amino]carbonyl}amino)-2-pyridinyl]carbonyl}amino)(cyclohexyl)ethanoic acid]	920
Cc1cc(C)c(NC(=O)Nc2cc(Cl)cnc2C(=O)NC2(C(=O)O)CCCCCC2)c(C)c1 [Example 319, 1-({[5-chloro-3-({[(2,4,6-trimethylphenyl)amino]carbonyl}amino)-2-pyridinyl]carbonyl}amino)cycloheptanecarboxylic acid]	470
CCCc1cc(C)c(NC(=O)Nc2cc(Cl)cnc2C(=O)NC2(C(=O)O)CCCCCCC2)c(C)c1 [Example 320, 1-({[5-Chloro-3-({[(2,6-dimethyl-4-propylphenyl)amino]carbonyl}amino)-2-pyridinyl]carbonyl}amino)cyclooctanecarboxylic acid]	38
Cc1cc(C)c(NC(=O)Nc2cc(-c3ccccc3)cnc2C(=O)N[C@H](C(=O)O)C2CCCCC2)c(C)c1 [Example 321, (2S)-Cyclohexyl({[5-phenyl-3-({[(2,4,6-trimethylphenyl)amino]carbonyl}amino)-2-pyridinyl]carbonyl}amino)ethanoic acid]	150
